For experiment [1], the system named is A375 melanoma cells. The experiment in a line: BrdU proliferation assay. The format is cell-based, human. The conditions noted are these: increasing concentrations of leflunomide, 72 hours. On the procedure:
A375 melanoma cells were seeded in 12-well plates at a density of 10,000 cells and grown on gelatin-coated coverslips. After 24 hours leflunomide was added to cells at 12.5, 25 or 50 μM (or a vehicle control) for 72 hours. Cells were pulsed for 2 hours with BrdU (Sigma-Aldrich) at a final working concentration of 10 μM. Cells were permeabilised in 2N-HCL + 0.5% Triton X-100. Primary BrdU antibody diluted 1:100 in 1% goat serum was applied and incubated overnight at 4°C followed by Alexa Fluor-488 anti-mouse secondary antibody Cells were counterstained with DAPI. Cells were mounted onto slides using hydromount and examined under a Zeiss AxioPlan 2ie widefield microscope with an AxioCam HRm CCD camera. Images were analyzed using Image J software.

The subject of experiment [2] is A375 melanoma cells. Briefly: Mitotracker green staining (mitochondrial mass). The format is cell-based, human. On the procedure: (§1) www.impactjournals.com/oncotarget/ Oncotarget, Supplementary Materials 2017 The anti-rheumatic drug, leflunomide, synergizes with MEK inhibition to suppress melanoma growth
(§2) Mitochondrial membrane potential [ΔΨM] assay REFERENCES
(§3) A375 melanoma cells were seeded in 12 well plates at 1. Tap WD, Gong KW, Dering J, Tseng Y, Ginther C, Pauletti a density of 10,000 cells per 1 ml of medium per well. After G, Glaspy JA, Essner R, Bollag G, Hirth P, Zhang C, Slamon 24 hours, the cells were treated with vehicle or leflunomide. DJ. […] Haluska FG, Tsao H, Wu H, Haluska FS, Lazar A, Goel V. of fresh PBS before being analyzed on the BD AccuriTM C6 Genetic alterations in signaling pathways in melanoma. […] Samples were exposed to 488 nm excitation, Cancer Res. 2006; 12:2301s–2307s. with JC-1 green monomer fluorescence detected at 533/30 3. von Euw E, Atefi M, Attar N, Chu C, Zachariah S, Burgess BL, nm in the FL1 channel and JC-1 red aggregates fluorescence Mok S, Ng C, Wong DJ, Chmielowski B, Lichter DI, Koya RC, detected at 585/20 nm in the FL2 channel. […] Data selective MEK inhibitor TAK733 against cutaneous and uveal was analyzed using the BD AccuriTM C6 Software. melanoma cell lines. […]
(§4) BD AccuriTM C6 flow cytometer (with green fluorescence 6. Atefi M, Titz B, Tsoi J, Avramis E, Le A, Ng C, Lomova A, Lassen detected in the FL1 channel). […]

Another experiment has as its system M296 melanoma cells. Briefly: Cell viability assay (CellTiter-Glo). The format is cell-based. The conditions noted are these: Homo sapiens, 72 hours treatment. On the procedure: (§5) Cells that had been seeded 24 hours earlier on poly-L-lysine coated 96-well plates (Sigma-Aldrich) to subconfluency, were treated with drugs at the indicated concentrations for 72 hours. Cytochalasin D (Sigma Aldrich) was used as a positive control. All conditions were repeated in triplicate. Cell viability was determined on day 5 using the CellTiter-Glo Luminescence assay (Promega), according to the manufacturer’s instructions. Luminescence from the plate was read on a BMG LabTech Omega Series plate reader (data analyzed using OMEGA software). Cell viability was calculated as a percentage of the mean vehicle control.
(§6) For pharmacological analysis, IC50 values were generated using Prism Graphpad software (Graphpad Software, Inc.) and calculated using a nonlinear regression model. Combinatorial drug synergy was assessed by determination of combination index (CI), which was calculated using CalcuSyn (Biosoft) software using the median effects methods as described by Chou and Talalay, CI values less than 0.7 indicated synergy, 0.7–0.9 weak synergy, 0.9–1.1 additivity, 1.1–1.45 indicated weak antagonism and greater than 1.45 antagonism.
In general terms: ATP-based viability assays read luminescence as a measure of living cells.

In another experiment the test system is SKmel5 melanoma cells. The experiment in a line: Cell viability assay (CellTiter-Glo). The format is cell-based. The conditions noted are these: Homo sapiens, SK-MEL-5, 72 hours treatment. The protocol:
as §5, §6

For experiment [3], the system named is A375 melanoma cells. Briefly: Mitochondrial membrane potential assay (JC-1). The format is cell-based, human. The conditions noted are these: rising concentrations of leflunomide (25, 50, 100 μM), 72 hours. On the procedure:
as §1, §2, §3, §4

For experiment [4], the system named is A375 melanoma cells. Briefly: Annexin V apoptosis assay. The format is cell-based, human. The conditions noted are these: 72 hours. The protocol:
Apoptosis was assessed using an Annexin V-FITC Apoptosis detection kit FITC (eBioscience), according to the manufacturer’s instructions. Briefly, cells were seeded in 24-well plates at a density of 4,600 cells per well. After 24 hours, the cells were treated with vehicle or leflunomide (at concentrations of 25, 50 and 100 µM). After 72 hours cells were trypsinised, washed in PBS and treated with fluorochrome-conjugated Annexin V and propidium iodide as indicated in the protocol. Cells were analyzed on the BD Accuri™ C6 flow cytometer and the data analyzed using the instrument software.

By IC50 is commonly meant the concentration that gives 50% inhibition. For `Cc1oncc1C(=O)Nc1ccc(C(F)(F)F)cc1` [Leflunomide, leflunomide], the “number of BrdU positive (proliferating) cells” value with A375 melanoma cells [1] is given as “dose-dependent decrease”. Besides, the “increase in the time to reach 5000 events by flow cytometry (sample cell density)” value in the experiment on A375 melanoma cells [2] (100 μM leflunomide relative to the 25 μM and 50 μM treated samples) was 3 fold. Besides, the “increase in the amount of green fluorescence (Mitotracker green) compared to the DMSO control” value with A375 melanoma cells [2] (100 μM leflunomide, 72 hours) is recorded as 3 fold. Moreover, the results for the IC50 with M296 melanoma cells and with SKmel5 melanoma cells were 112 µM and 122 µM, respectively. Also, the “mitochondrial membrane potential (JC-1, FL-1 channel)” value in the experiment on A375 melanoma cells [3] is “depolarized”. Further, the “early apoptotic cells (quadrant Q3)” value in the experiment on A375 melanoma cells [4] (50 μM leflunomide) came to 49.3%; in the experiment on A375 melanoma cells [4] (100 μM leflunomide), 28.5%. Besides, the “late apoptotic/necrotic cells (quadrant Q2)” value is listed as 44.2% in the experiment on A375 melanoma cells [4] (50 μM leflunomide) and 19.1% in the experiment on A375 melanoma cells [4] (100 μM leflunomide). Besides, the viability at 25 µM in the experiment with A375 melanoma cells [4] (Homo sapiens, A-375, 25μM leflunomide, read-out: viable cells (quadrant Q4)) is 68%. Further, the viability at 50 µM with A375 melanoma cells [4] (Homo sapiens, A-375, 50μM leflunomide, read-out: viable cells (quadrant Q4)) is 5.91%. Also, in the experiment on A375 melanoma cells [4] (Homo sapiens, A-375, 100μM leflunomide, read-out: viable cells (quadrant Q4)), the viability at 100 µM was determined as 51.4%.

(Values after publication PMC5790502, “The anti-rheumatic drug, leflunomide, synergizes with MEK inhibition to suppress melanoma growth” (Oncotarget, 2017).)
